GI50 and TGI data for 11 compounds are collected here from PubChem BioAssay (NCI).

“And” between values parts separate entries of the source, which are not always exact repeats. Equal values may be shown once.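 In this assay, cells in 96-well plates receive the compound at five concentrations for 48 hours. Endpoints are linearly interpolated between the surrounding concentrations. GI50: concentration for 50% inhibition of growth. TGI denotes the concentration required for complete inhibition of growth.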

Some test systems named below: HOP-92 NSCLC; CCRF-CEM leukemia; UO-31 renal; HS 578T breast; EKVX NSCLC; MALME-3M melanoma; SK-OV-3 ovarian; TK-10 renal; T-47D breast; SN12C renal.
Common to all, as to test: NCI-60 cell line screen, 48 h

Take `C[C@@H](O)[C@H](NC(=O)N[C@@H](CC(N)=O)c1nc([C@@H](N)CO)no1)C(=O)O`: the GI50 in the assay on HOP-92 NSCLC, with CCRF-CEM leukemia, with UO-31 renal, with HS 578T breast, with EKVX NSCLC and in the assay with MALME-3M melanoma was greater than 100 µM in each case. The GI50 in the assay with SK-OV-3 ovarian, in the assay on TK-10 renal, in the assay with T-47D breast and in the assay with SN12C renal was greater than 100 µM throughout. Further, the TGI with HOP-92 NSCLC, in the assay with CCRF-CEM leukemia, in the assay on UO-31 renal, with HS 578T breast, in the assay on EKVX NSCLC and in the assay on MALME-3M melanoma was greater than 100 µM throughout. In addition, the TGI in the assay with SK-OV-3 ovarian, with TK-10 renal, with T-47D breast and in the assay on SN12C renal was greater than 100 µM each time.
In the case of `C=C(C)[C@@H]1CC[C@]2(C(=O)O)CC[C@]3(C)[C@H](CC[C@@H]4[C@@]5(C)CCC(NC(=O)c6cccc(OC(C)=O)c6OC(C)=O)C(C)(C)[C@@H]5CC[C@]43C)[C@@H]12` (stereo not given in full), the GI50 was 0.439 µM in the assay on HOP-92 NSCLC; 0.585 µM in the assay with CCRF-CEM leukemia; 0.283 µM in the assay on UO-31 renal; 0.566 µM in the assay on HS 578T breast; 0.918 µM with EKVX NSCLC; 0.317 µM in the assay with MALME-3M melanoma. Besides, the GI50 with SK-OV-3 ovarian is 1.89 µM; in the assay with TK-10 renal, 0.656 µM; in the assay on T-47D breast, 0.628 µM; in the assay on SN12C renal, 0.94 µM. In addition, the TGI with HOP-92 NSCLC was 2.25 µM; with CCRF-CEM leukemia, 18.9 µM; with UO-31 renal it was 1.43 µM; in the assay on HS 578T breast it was 4.28 µM; in the assay on EKVX NSCLC it was greater than 100 µM; with MALME-3M melanoma it was 1.47 µM. For the same compound, the TGI with SK-OV-3 ovarian was greater than 20.4 µM; with TK-10 renal, greater than 100 µM; in the assay on T-47D breast it was greater than 100 µM; in the assay on SN12C renal, greater than 100 µM.
In the case of `C[C@]12CC[C@H](OC3OC(CO)C(O)C(O)C3O)C[C@H]1CC[C@@H]1[C@@H]2CC[C@]2(C)[C@@H](C3=CCOC3=O)CC[C@]12O` (stereo not given in full), the GI50 with HOP-92 NSCLC was greater than 100 µM; with CCRF-CEM leukemia, 23.4 µM and > 100 µM; in the assay on UO-31 renal, greater than 100 µM; with EKVX NSCLC, greater than 100 µM; with MALME-3M melanoma, 23 µM and 16.2 µM; in the assay on SK-OV-3 ovarian, greater than 100 µM. Also, the GI50 in the assay on T-47D breast is 4.89 µM; in the assay with SN12C renal, greater than 100 µM. The TGI in the assay with HOP-92 NSCLC was 31.1 µM and > 100 µM; in the assay with CCRF-CEM leukemia, 50 µM and > 100 µM; with UO-31 renal, 50 µM and > 100 µM; in the assay on HS 578T breast, greater than 100 µM; in the assay with EKVX NSCLC it was 29.3 µM and > 100 µM; with MALME-3M melanoma, 20.4 µM and > 100 µM. In addition, the TGI with SK-OV-3 ovarian is greater than 100 µM; with TK-10 renal, greater than 100 µM; in the assay on T-47D breast, greater than 100 µM; in the assay on SN12C renal it was 50 µM and > 100 µM.
`COc1ccc(/C(COc2ccc3c(=O)c(-c4ccccc4)coc3c2)=N\O)cc1`: the GI50 is 8.83 µM with HOP-92 NSCLC; 3.9 µM with CCRF-CEM leukemia; 9.02 µM in the assay with UO-31 renal; 3.79 µM in the assay with HS 578T breast; 4.94 µM in the assay on EKVX NSCLC; 0.72 µM with MALME-3M melanoma. Besides, the GI50 with SK-OV-3 ovarian was 10.1 µM; in the assay with TK-10 renal it was 0.988 µM; in the assay on T-47D breast, 6.96 µM; in the assay with SN12C renal, 1.65 µM. Further, the TGI with HOP-92 NSCLC is 47 µM; in the assay with CCRF-CEM leukemia, greater than 100 µM; in the assay on UO-31 renal it was 27.7 µM; with HS 578T breast, 44.6 µM; with EKVX NSCLC, 38.7 µM; in the assay on MALME-3M melanoma it was 5.91 µM. The TGI is 29.5 µM in the assay with SK-OV-3 ovarian, 9.22 µM with TK-10 renal, greater than 37.2 µM in the assay on T-47D breast and 16.4 µM with SN12C renal.
Turning to `C[C@]12CC[C@@H]3c4cc(-c5ccc(F)cc5)c(O)cc4CC[C@H]3[C@@H]1CC[C@@H]2O`, the GI50 is 10.6 µM with HOP-92 NSCLC; 6.93 µM in the assay with CCRF-CEM leukemia; 7.01 µM with UO-31 renal; 4.84 µM in the assay on HS 578T breast; 6.32 µM in the assay on EKVX NSCLC; 10.1 µM in the assay on MALME-3M melanoma. The GI50 in the assay with SK-OV-3 ovarian was 13.3 µM; with T-47D breast, 4.52 µM; in the assay with SN12C renal, 10 µM. Moreover, the TGI in the assay with HOP-92 NSCLC turned out to be 23.6 µM; in the assay on CCRF-CEM leukemia, 29.3 µM; in the assay with UO-31 renal, 21.6 µM; with HS 578T breast, 22.4 µM; in the assay on EKVX NSCLC, 20.3 µM; in the assay on MALME-3M melanoma it was 22 µM. The TGI in the assay on SK-OV-3 ovarian worked out at 28.2 µM; with TK-10 renal, 21.7 µM; in the assay with T-47D breast it was 24.6 µM; in the assay with SN12C renal it was 22.4 µM.
For `C=C(CN1CCN(c2cccc(C(F)(F)F)n2)CC1)c1ccc(C(=O)Nc2ccccc2N)cc1`, the GI50 was 2 µM in the assay with HOP-92 NSCLC; 0.278 µM in the assay with CCRF-CEM leukemia; 2.76 µM and 0.465 µM with UO-31 renal; 0.448 µM and 0.194 µM in the assay on HS 578T breast; 24.3 µM and 2.73 µM in the assay on EKVX NSCLC; 1.06 µM and 0.338 µM with MALME-3M melanoma. In addition, the GI50 in the assay with SK-OV-3 ovarian is 2.55 µM and 0.634 µM; with T-47D breast, 3.01 µM and 0.616 µM; with SN12C renal, 3.79 µM and 0.797 µM. Also, the TGI in the assay on HOP-92 NSCLC is 43.9 µM; in the assay with CCRF-CEM leukemia, greater than 100 µM; with UO-31 renal, 72.2 µM and > 76.6 µM; in the assay with EKVX NSCLC it was greater than 100 µM; in the assay with MALME-3M melanoma, > 100 µM and 28.2 µM; with SK-OV-3 ovarian, 42.4 µM and 21.2 µM. Also, the TGI was > 100 µM and 35.4 µM in the assay with TK-10 renal; greater than 100 µM with T-47D breast; greater than 100 µM in the assay on SN12C renal.
For `Cc1ccc(Cc2cnc(NC(=O)/C=C/c3cccc(C)c3)s2)cc1`, the GI50 with HOP-92 NSCLC is 0.0793 µM; with CCRF-CEM leukemia, 0.0893 µM; in the assay on UO-31 renal it was 0.395 µM; in the assay on HS 578T breast, 0.212 µM; in the assay with EKVX NSCLC, 0.403 µM; in the assay on MALME-3M melanoma, 0.19 µM. Moreover, the GI50 was 0.85 µM in the assay with SK-OV-3 ovarian, 0.919 µM in the assay with TK-10 renal, 0.577 µM in the assay with T-47D breast and 0.393 µM with SN12C renal. In addition, the TGI was greater than 57 µM in the assay with HOP-92 NSCLC; greater than 53.6 µM in the assay with CCRF-CEM leukemia; 9.54 µM in the assay with UO-31 renal; 5.86 µM with HS 578T breast; greater than 100 µM with EKVX NSCLC; 51.9 µM with MALME-3M melanoma. In addition, the TGI is greater than 59.7 µM in the assay on SK-OV-3 ovarian, 6.81 µM with TK-10 renal, greater than 100 µM with T-47D breast and greater than 56 µM with SN12C renal.
With `CNC(=S)NC(=O)c1c(Cl)n(C(=O)OC(C)(C)C)c2ccccc12`, the GI50 is 15.1 µM in the assay with HOP-92 NSCLC; 35.4 µM in the assay with CCRF-CEM leukemia; 73.8 µM with UO-31 renal; 45.8 µM in the assay on HS 578T breast; 39.7 µM in the assay with EKVX NSCLC; greater than 100 µM in the assay with MALME-3M melanoma. Moreover, the GI50 in the assay on SK-OV-3 ovarian is greater than 100 µM; with TK-10 renal, 97.5 µM; with T-47D breast, 44.1 µM; in the assay on SN12C renal, 72.8 µM. The TGI in the assay with HOP-92 NSCLC was 85.1 µM; in the assay with CCRF-CEM leukemia, greater than 100 µM; in the assay with UO-31 renal, greater than 100 µM; with HS 578T breast, greater than 100 µM; with EKVX NSCLC it was greater than 100 µM; with MALME-3M melanoma it was greater than 100 µM. Moreover, the TGI with SK-OV-3 ovarian, in the assay with TK-10 renal, in the assay with T-47D breast and in the assay with SN12C renal was greater than 100 µM each time.
On to `Cc1nc2sc(C(=O)Nc3cccc4ccccc34)c(N)c2cc1C(O)c1ccccc1` (stereo not given), for which the GI50 is 2.11 µM in the assay on HOP-92 NSCLC; 0.0409 µM in the assay with CCRF-CEM leukemia; 0.283 µM in the assay with UO-31 renal; 0.0306 µM in the assay on HS 578T breast; 0.375 µM in the assay on EKVX NSCLC; 0.0558 µM with MALME-3M melanoma. Also, the GI50 with SK-OV-3 ovarian was 0.0702 µM; in the assay on TK-10 renal it was 1.57 µM; with T-47D breast, 0.0527 µM; in the assay on SN12C renal it was 0.0971 µM. For the same compound, the TGI in the assay on HOP-92 NSCLC is 18.8 µM; with CCRF-CEM leukemia it was greater than 100 µM; with UO-31 renal, 14.2 µM; in the assay on HS 578T breast, 0.693 µM; with EKVX NSCLC, 37.5 µM; in the assay on MALME-3M melanoma, 21.2 µM. The TGI with SK-OV-3 ovarian is 67.4 µM; with TK-10 renal, greater than 91.5 µM; in the assay with T-47D breast, 88.6 µM; in the assay with SN12C renal, 9.49 µM.
As for `CNC(=O)c1ccc(N2C(=S)N(c3ccc(C#N)c(C(F)(F)F)c3)C(=O)C2(C)C)cc1F`, the GI50 in the assay on HOP-92 NSCLC was 16.5 µM; with CCRF-CEM leukemia, 30 µM; with UO-31 renal it was 8.83 µM; in the assay with HS 578T breast it was greater than 43.1 µM; in the assay on EKVX NSCLC, 25 µM; in the assay with MALME-3M melanoma, 20.9 µM. The GI50 in the assay with SK-OV-3 ovarian was greater than 51 µM; with TK-10 renal, greater than 54.8 µM; in the assay with T-47D breast it was 27.9 µM; with SN12C renal it was 38.6 µM. Moreover, the TGI in the assay with HOP-92 NSCLC was greater than 48.9 µM; in the assay with CCRF-CEM leukemia, greater than 100 µM; with UO-31 renal it was 34.9 µM; in the assay on HS 578T breast, greater than 86.8 µM; in the assay on EKVX NSCLC it was greater than 80.5 µM; in the assay on MALME-3M melanoma it was greater than 82.1 µM. Moreover, the TGI with SK-OV-3 ovarian is greater than 93.1 µM; in the assay on TK-10 renal it was greater than 100 µM; in the assay with T-47D breast, 97 µM; with SN12C renal it was greater than 100 µM.
As for `C=C1C(=O)OC2C1CCC(C)C1C=CC(=O)C12C` (stereo not given), the TGI in the assay with HOP-92 NSCLC is 13.3 µM; with CCRF-CEM leukemia, 8.54 µM; with UO-31 renal it was 9.26 µM; in the assay with HS 578T breast it was 15.4 µM; in the assay with EKVX NSCLC it was 25.2 µM; in the assay with MALME-3M melanoma it was 7.47 µM. For the same compound, the TGI turned out to be 98.8 µM in the assay on SK-OV-3 ovarian, 10.6 µM with TK-10 renal, 4.88 µM with T-47D breast and 13.5 µM with SN12C renal.
